Measured values: the NIST ThermoML archive (doi:10.1016/j.tca.2006.04.016)
± gives the expanded uncertainty stated by the source.

Assay: xn = mol fraction of the nth substance listed
Settings: 101 kPa, Liquid, Vibrating tube method

CN(C)CCCN [N,N-dimethyl-1,3-propanediamine] + O
mass density [kg/m3]
Settings	318.15 K	323.15 K	328.15 K	333.15 K	338.15 K	343.15 K	348.15 K	353.15 K
x2 = 0	–	790.41 ± 0.15	785.91 ± 0.15	781.39 ± 0.16	776.85 ± 0.16	772.29 ± 0.16	767.7 ± 0.16	763.1 ± 0.17
x2 = 0.0403	–	793.5 ± 0.15	789 ± 0.15	784.47 ± 0.16	779.92 ± 0.16	775.35 ± 0.16	770.76 ± 0.16	766.14 ± 0.17
x2 = 0.0811	–	796.65 ± 0.15	792.14 ± 0.16	787.61 ± 0.16	783.06 ± 0.16	778.48 ± 0.16	773.88 ± 0.17	769.25 ± 0.17
x2 = 0.1198	–	799.82 ± 0.16	795.31 ± 0.16	790.78 ± 0.16	786.22 ± 0.16	781.64 ± 0.17	777.03 ± 0.17	772.39 ± 0.17
x2 = 0.16	–	803.3 ± 0.16	798.79 ± 0.16	794.25 ± 0.17	789.69 ± 0.17	785.1 ± 0.17	780.49 ± 0.17	775.84 ± 0.17
x2 = 0.1996	–	806.9 ± 0.17	802.39 ± 0.17	797.86 ± 0.17	793.3 ± 0.17	788.71 ± 0.18	784.09 ± 0.18	779.43 ± 0.18
x2 = 0.2498	–	811.82 ± 0.18	807.31 ± 0.18	802.78 ± 0.18	798.22 ± 0.18	793.62 ± 0.18	788.99 ± 0.19	784.32 ± 0.19
x2 = 0.2998	–	817.12 ± 0.19	812.62 ± 0.19	808.09 ± 0.19	803.53 ± 0.19	798.93 ± 0.2	794.3 ± 0.2	789.63 ± 0.2
x2 = 0.3499	–	822.81 ± 0.2	818.31 ± 0.21	813.78 ± 0.21	809.21 ± 0.21	804.61 ± 0.21	799.97 ± 0.21	795.29 ± 0.21
x2 = 0.3997	–	829.08 ± 0.22	824.59 ± 0.22	820.06 ± 0.22	815.49 ± 0.22	810.89 ± 0.23	806.24 ± 0.23	801.55 ± 0.23
x2 = 0.4501	–	836.03 ± 0.24	831.54 ± 0.24	827.01 ± 0.24	822.44 ± 0.24	817.83 ± 0.24	813.18 ± 0.24	808.48 ± 0.24
x2 = 0.4998	–	843.68 ± 0.26	839.19 ± 0.26	834.65 ± 0.26	830.08 ± 0.26	825.45 ± 0.26	820.79 ± 0.26	816.07 ± 0.26
x2 = 0.5501	–	852.33 ± 0.28	847.84 ± 0.28	843.3 ± 0.3	838.71 ± 0.28	834.08 ± 0.28	829.41 ± 0.28	824.69 ± 0.28
x2 = 0.5999	866.35 ± 0.3	861.89 ± 0.3	857.39 ± 0.3	852.84 ± 0.3	848.24 ± 0.3	843.6 ± 0.3	838.92 ± 0.3	834.17 ± 0.3
x2 = 0.6498	877.08 ± 0.32	872.61 ± 0.32	868.1 ± 0.32	863.55 ± 0.32	858.94 ± 0.32	854.29 ± 0.32	849.59 ± 0.32	844.83 ± 0.32
x2 = 0.7	889.3 ± 0.34	884.83 ± 0.34	880.31 ± 0.34	875.74 ± 0.34	871.13 ± 0.34	866.47 ± 0.34	861.76 ± 0.34	857 ± 0.34
x2 = 0.7499	902.82 ± 0.36	898.36 ± 0.36	893.85 ± 0.36	889.3 ± 0.4	884.69 ± 0.36	880.03 ± 0.36	875.32 ± 0.36	870.56 ± 0.36
x2 = 0.8	917.71 ± 0.39	913.29 ± 0.39	908.82 ± 0.38	904.3 ± 0.4	899.72 ± 0.38	895.11 ± 0.38	890.44 ± 0.38	885.71 ± 0.38
x2 = 0.84	930.55 ± 0.41	926.21 ± 0.41	921.82 ± 0.41	917.39 ± 0.4	912.9 ± 0.4	908.37 ± 0.4	903.78 ± 0.4	899.14 ± 0.4
x2 = 0.8799	943.86 ± 0.43	939.69 ± 0.43	935.48 ± 0.43	931.22 ± 0.42	926.91 ± 0.42	922.56 ± 0.42	918.14 ± 0.42	913.67 ± 0.42
x2 = 0.9	950.58 ± 0.44	946.58 ± 0.44	942.52 ± 0.44	938.42 ± 0.44	934.27 ± 0.43	930.05 ± 0.43	925.79 ± 0.43	921.45 ± 0.43
x2 = 0.92	957.27 ± 0.45	953.52 ± 0.45	949.71 ± 0.45	945.84 ± 0.45	941.89 ± 0.45	937.89 ± 0.44	933.81 ± 0.44	929.67 ± 0.44
x2 = 0.94	963.99 ± 0.46	960.6 ± 0.46	957.12 ± 0.46	953.56 ± 0.46	949.91 ± 0.46	946.17 ± 0.46	942.35 ± 0.46	938.45 ± 0.45
x2 = 0.9597	970.89 ± 0.47	967.94 ± 0.47	964.87 ± 0.47	961.68 ± 0.47	958.38 ± 0.47	954.98 ± 0.47	951.46 ± 0.47	947.86 ± 0.47
x2 = 0.975	976.98 ± 0.48	974.39 ± 0.48	971.65 ± 0.48	968.78 ± 0.48	965.78 ± 0.48	962.66 ± 0.48	959.41 ± 0.48	956.07 ± 0.48
x2 = 0.99	984.22 ± 0.49	981.91 ± 0.49	979.45 ± 0.49	976.83 ± 0.49	974.07 ± 0.49	971.18 ± 0.49	968.15 ± 0.49	965.01 ± 0.49
